Where two headings read alike, the source gives them in different places. Marks after values point to notes of the source that are not given here.
Legend:
[1] = test system: M. incognita second-stage juveniles; experiment: Microwell assay: previously hatched J2 immersed in compounds, activity and viability; details: for mortality at 0.1 %: read-out: nonviable (killed) J2
Experimental: Nematode cultures: As described in Meyer et al. (Meyer, S. L. F., et al., Nematropica, 46: 85-96 (2016)), M. incognita race 1 (originally isolated in Maryland) was maintained in a greenhouse (24° to 29° C.; natural and supplemental lighting combined for a 16-h daylength) on susceptible cayenne pepper (Capsicum annuum) TA-136′ plants. All greenhouse experiments described herein were conducted under the same conditions. Two to three months after pepper plant inoculation, egg masses were picked from roots. Eggs were separated by 5 min immersion in 0.6% sodium hypochlorite, followed by a rinse in sterile distilled water (SDW). To collect second-stage juveniles (J2) for microwell assays, the surface-sterilized eggs were placed in a hatching chamber (Spectra/Mesh Nylon Filter, openings 25-μm-diam.; Spectrum Laboratories Inc., Rancho Dominguez, Calif.) set in an autoclaved dish that was placed on a rotary shaker for 3 days at 35 rpm. For some M. incognita and H. glycines assays, 25 or […] kanamycin monosulfate (Phytotechnology Laboratories, Shawnee Mission, Kans.) was added to the hatching chamber to prevent growth of bacteria. The collected J2 were then rinsed with water to remove the kanamycin monosulfate.
Compounds for the studies were purchased from three different companies: methyl benzoate, CAS Number 93-58-3, ≥99% purity; Tween 20, CAS Number: 9005-64-5; Tween 80, CAS Number: 9005-65-6; ethyl benzoate, CAS Number: 93-89-0, natural, ≥99% purity, FCC, FG; vinyl benzoate, CAS Number: 769-78-8, ≥99% purity; n-propyl benzoate, CAS Number: 2315-68-6, 99% purity; n-butyl benzoate, CAS Number: 136-60-7, 99% purity; benzyl benzoate, CAS Number: 120-51-4, natural, ≥99% purity, FCC, FG; methyl 2-methylbenzoate, CAS Number: 89-71-4, 99% purity; methyl 2-chlorobenzoate, CAS Number: 610-96-8, ≥98% purity; methyl 2-methoxybenzoate, CAS Number: 606-45-1, 99% purity and methyl 2-nitrobenzoate, CAS Number: 606-27-9, 98% purity were purchased from Sigma-Aldrich (St. Louis, Mo.). Compounds, iso-butyl benzoate, CAS Number 120-50-3, >98% purity; n-pentyl benzoate, CAS Number: 2049-96-9, ≥98% purity; and n-hexyl benzoate, CAS Number: 6789-88-4, ≥98% purity were purchased from Alfa Aesar (Tewksbury, Mass.). The compounds methyl 3-methoxybenzoate (methyl m-anisate), CAS Number: 5368-81-0; 97% and methyl 3-methylbenzoate (methyl m-toluate), CAS Number: 99-36-5, 97% purity were purchased from TCI America (Portland, Oreg.). All chemicals were used without further purification. Deionized water (DI) containing 1% emulsifier (v/v), Tween 20 and Tween 80, at 1:1 ratio was used to make different VOCs (volatile organic compounds) water solutions and also used as blank control.
For tests with individual compounds, the concentration of each compound was 0.1% before placement into wells; the final concentration in the wells was 0.095% after addition to eggs or J2 suspended in water. These are reported as 0.1% herein. An exception was Trial 2, M. incognita J2 activity and viability (Table 2): the final concentration was 0.1% after placement in wells. Low concentrations were selected for assays of combined compounds to determine if the combinations would increase nematotoxicity.
Laboratory assays were conducted in 96-well polystyrene plates following general procedures described in Wen et al. (2019). Each well received approximately 35 J2 (for previously hatched J2 assays) or 35 eggs that each contained either a first-stage juvenile (J1) or a J2. The plates were covered with plastic adhesive sealing film (Excel Scientific, Inc., Victorville Calif.) and then with the plate lids. Parafilm (Bemis, Neenah, Wis.) was used to seal the plates. The nematodes were then incubated at 26° C. […] Following the counts on Day 2, the treatments were removed and the J2 rinsed twice with SDW and incubated in the second rinse. […] Two trials were conducted for each assay.

[2] = test system: cucumber (Cucumis sativus) plants; experiment: Greenhouse trial: cucumber plant vigor in treated soil; details: for Root weight Trials 1 & 2: 27-28 ml per 300 grams soil; for Shoot fresh weight Trial 1 / Shoot height Trial 1: 27 ml per 300 grams soil; for Shoot fresh weight Trial 2 / Shoot height Trial 2: 28 ml per 300 grams soil
Experimental: Greenhouse trials: Selected compounds and combinations were tested for effects on plant growth and on numbers of galls produced by M. incognita infecting cucumber (Cucumis sativus) plants in pots. Cucumber “Sweet Slice” seeds were planted in ProMix in 6-pack cell trays. Treatments were mixed into loamy sand at 27 ml (Trial 1) and 28 ml (Trial 2) per 300 grams soil. Meloidogyne incognita eggs were mixed into soil for a final inoculum of 5,000 per pot. Each pot received 300 grams soil per treatment, with 4 replicates per treatment in each of two trials. Pots were covered with black plastic and periodically watered to keep the soil moist. Two weeks later, one 14-day old cucumber seedling was transplanted into each pot. Two weeks after transplant, the plants were harvested. Root and shoot measurements were recorded and root galls were counted.
Statistical analyses: The data were analyzed as either a general linear model using JMP or a generalized linear model for the best distribution to fit the residual using Proc Glimmix (Sas Institute). The assumptions of the model were checked. If not met, then appropriate statistical techniques were used so that data could met the assumptions of the models. In Sas, mean comparisons were done with Sidak adjusted p-values to hold the experiment-wise error at 0.05. As indicated in the footnote to Table 5, an analysis from greenhouse trials was conducted with JMP using a Wilcoxon test with each pair nonparametric multiple comparisons (P≤0.05).
Table 5 legend: a) treatments were added at a rate of 27 ml (Trial 1) and 28 ml (Trial 2) per 300 grams soil. Four replicate pots, each containing 300 grams soil, were used per treatment in each trial. Meloidogyne incognita was mixed into soil for a final inoculum of 5,000 eggs per pot. Two weeks after soil treatment, one 14-day old cucumber seedling was transplanted into each pot. […] Untransformed data are presented to show actual numbers on roots; e) compounds differ from each other in number of carbons of aliphatic ester moiety. The number of carbons is indicated in parentheses.

Heterodera glycines eggs = experiment: Microwell assay: eggs immersed in compounds, hatch and activity of hatched J2; assay type: in vivo; details: for % Active Day 2 / % Active Day 5 / % Active Day 7: J2 hatched from immersed eggs; for inactive J2 that hatched from the eggs: by Day 7; for Hatch Day 2 / Hatch Day 5 / Hatch Day 7: hatched J2 per well, about 35 eggs per well; for pest or weed control at 0.1 %: Heterodera glycines, 168 h, read-out: egg hatch suppression compared with the Tween control
Experimental: All chemicals were used without further purification.
These are reported as 0.1% herein.
The nematodes were then incubated at 26° C. […] Two trials were conducted for each assay.
The assumptions of the model were checked.

M. incognita juveniles = details: MB isolated from Buddleja crispa; laboratory assays; cited from earlier work
[3] = 0.1%, previously hatched J2 in aqueous solution
[4] = Meloidogyne incognita, 72 h, read-out: % Viable Day 3 rinsed

Compound	% Active Day 1 [1, 3]	% Active Day 2 [1, 3]	viability at 0.1 % [1, 4] [%]	mortality at 0.1 % ([1]; Meloidogyne incognita, 72 h) [%]	Root weight Trials 1 & 2 ([2]; 0.05%)	Shoot fresh weight Trial 1 ([2]; 0.05%)	Shoot height Trial 1 ([2]; 0.05%)	Shoot fresh weight Trial 2 ([2]; 0.05%)	Shoot height Trial 2 ([2]; 0.05%)	Shoot fresh weight Trial 1 ([2]; 0.1%)	Shoot height Trial 1 ([2]; 0.1%)	Shoot fresh weight Trial 2 ([2]; 0.1%)	Shoot height Trial 2 ([2]; 0.1%)	% Active Day 2 (Heterodera glycines eggs; 0.1%)	% Active Day 5 (Heterodera glycines eggs; 0.1%)	% Active Day 7 (Heterodera glycines eggs; 0.1%)	inactive J2 that hatched from the eggs (Heterodera glycines eggs; 0.1%)	Hatch Day 2 (Heterodera glycines eggs; 0.1%)	Hatch Day 5 (Heterodera glycines eggs; 0.1%)	Hatch Day 7 (Heterodera glycines eggs; 0.1%)	further results
CCOC(=O)c1ccccc1 [EB, Ethyl benzoate]	0 ^f %	0 ^d %	0	100	3.2 ^ab g	2.8 ^a g	7.1 ^ab cm	4.7 ^a g	7.5 ^a cm	3.0 ^a g	6.4 ^b cm	4.0 ^ab g	8.1 ^a cm	0 ^e %	0 ^f %	0 ^d %	all J2 that hatched from the eggs were inactive	6.7 ^bcd	6.8 ^bcd	6.6 ^bcd	% Active Day 2 ([1]; 0.025% final concentration): 42.9 ^bc %; viability at 0.025 % [1, 4]: 80.2%; Root weight Trials 1 & 2 ([2]; 0.1%): 3.1 ^ab g
COC(=O)c1cccc(C)c1 [M3MB, Methyl 3-methylbenzoate]	0 ^f %	0 ^d %	0	100	3.3 ^a g	3.3 ^a g	6.8 ^ab cm	4.3 ^ab g	7.9 ^a cm	3.2 ^a g	6.9 ^ab cm	3.6 ^ab g	7.2 ^a cm	0 ^e %	0 ^f %	0 ^d %	all J2 that hatched from the eggs were inactive	5.2 ^cd	5.4 ^cd	5.1 ^cd	% Active Day 2 ([1]; 0.015% final concentration): 66.8 ^ab %; viability at 0.015 % [1, 4]: 63.7%; pest or weed control at 0.1 % (Heterodera glycines eggs; 0.1%, Day 7): 64 to 80%
COC(=O)c1ccccc1 [MB, Methyl benzoate]	0 ^f %	0 ^d %	0	100	3.0 ^ab g	3.2 ^a g	7.7 ^ab cm	3.9 ^ab g	8.0 ^a cm	3.0 ^a g	7.2 ^ab cm	4.0 ^ab g	8.3 ^a cm	0 ^e %	0 ^f %	0 ^d %	all J2 that hatched from the eggs were inactive	5.4 ^cd	5.6 ^cd	5.5 ^cd	% Active Day 2 ([1]; 0.0095% final concentration): 22.4 ^d %; viability at 0.0095 % [1, 4]: 75.6%; Root weight Trials 1 & 2 ([2]; 0.1%): 2.9 ^ab g; pest or weed control at 0.1 % (Heterodera glycines eggs): 64 to 80%; nematocidal activity (M. incognita juveniles): demonstrated nematocidal activity
C=COC(=O)c1ccccc1 [VB, Vinyl benzoate]	0 ^f %	0 ^d %	1	100	3.1 ^ab g	3.2 ^a g	6.7 ^ab cm	4.3 ^ab g	8.3 ^a cm	3.0 ^a g	7.2 ^ab cm	3.1 ^b g	6.8 ^a cm	0 ^e %	0 ^f %	1 ^d %	all J2 that hatched from the eggs were inactive	3.5 ^d	3.5 ^d	3.4 ^d	% Active Day 2 ([1]; 0.008% final concentration, Trial 2 only): 22.4 ^cd %; viability at 0.0008 % [1, 4]: 89.6%; viability at 0.008 % [1, 4]: 43.1%; % Viable Day 3 rinsed ([1]; in vivo): did not result in a significant reduction; hatch suppression compared to the Tween control (Heterodera glycines eggs; 0.1%, Day 2): 76%; pest or weed control at 0.1 % (Heterodera glycines eggs; 0.1%, Day 7): 80%

Reference: patent publication US20220183287A1, “METHODS FOR KILLING PESTS” (The United States of America, as represented by the …, priority 2020, published 2022)
